Test results from ChEMBL document CHEMBL1156829 (Proc Natl Acad Sci U S A, 2008).
Structures can show the parent of a compound that is named as a salt.

Columns and labels:
[1] = tested on: Plasmodium falciparum; assay: NOVARTIS: Inhibition of Plasmodium falciparum 3D7 (drug-susceptible) proliferation in erythrocyte-based infection assay; format: functional, organism-based; details: Plasmodium falciparum, 3D7
[2] = NOVARTIS: Cytotoxicity against human hepatocellular carcinoma cell line (Huh7); format: toxicity, cell-based, Huh-7; details: Huh7 cells (hepatocellular carcinoma cell line)
[3] = tested on: Plasmodium falciparum; assay: NOVARTIS: Inhibition of Plasmodium falciparum W2 (drug-resistant) proliferation in erythrocyte-based infection assay; format: functional, organism-based; details: Plasmodium falciparum, W2; read-out: EC50

Compound | EC50 [1] [nM] | CC50 [2] [nM] | EC50 [3] [nM]
CC(Cc1ccccc1)NCCCCCCCNC(C)Cc1ccccc1 (configuration not stated) | 268 | 5900 | 105
Cc1cnc(Sc2ccccn2)c([N+](=O)[O-])c1 | > 12500 | 72900 | 6130
COCCNC(=S)N1CCN(S(=O)(=O)c2ccc([N+](=O)[O-])cc2)CC1 | 176 | > 100000 | 101
CCCOC(=O)C1=C(C)NC2=C(C(=O)CC(c3ccc(OC)c(OC)c3)C2)C1c1cccc([N+](=O)[O-])c1 (configuration not stated) | 145 | > 62400 | 36.4
CC(=NNC(N)=S)C(C)=NNC(N)=S | 572 | > 100000 | 462
CCCCCCCCCC(=O)N1CCN(C(CC)c2nc3ccccc3c(=O)n2C)CC1 (configuration not stated) | 283 | > 10000 | 267
CC(NCCC(c1ccccc1)c1ccccc1O)c1ccccc1 (configuration not stated) | 1120 | > 10000 | 277
CCn1c(-c2ccc(O)cc2)nn(CN2CCN(Cc3ccc4c(c3)OCO4)CC2)c1=S | > 1250 | > 10000 | > 1200
FC(F)(F)c1cnc(Sc2nnc(-c3ccncc3)o2)c(Cl)c1 | 1870 | 83900 | 976
Cn1c(=O)c2c(ncn2CC(O)CN=C2CCCCN2)n(C)c1=O (configuration not stated) | > 1250 | > 10000 | > 933
CCCCOc1ccc(C(O)C(CN2CCCCC2)c2ccccc2)cc1 (configuration not stated) | 835 | 39300 | 591
Cc1cccc(N2C(=O)C3C(C2=O)C2(c4ccccc4)C(=O)C3(c3ccccc3)C(c3ccccc3)=C2c2ccccc2)c1 (configuration not stated) | 1640 | > 100000 | 700
Cc1cc(Nc2ccc(Br)cc2)nc2ccccc12 | > 1250 | > 10000 | 1690
Cc1ccc(N2C(=O)C3C(C2=O)C2(c4ccccc4)C(=O)C3(c3ccccc3)C(c3ccccc3)=C2c2ccccc2)c([N+](=O)[O-])c1 (configuration not stated) | 2640 | > 100000 | > 12500
CCCCCCCCCCCC(OC(=O)C(CCCCN(O)C(C)=O)NC(=O)c1coc(-c2ccccc2O)n1)C(C)C(=O)NC1CCCCN(O)C1=O (configuration not stated) [NOCARDIMICIN B] | > 864 | > 10000 | 2.24
O=C1C(Nc2ccc(O)cc2)=CC(=NS(=O)(=O)c2cccs2)c2ccccc21 | 590 | 2430 | 297
CC1CCC(C(C)(C)Oc2ccc(NC(=O)c3ccccc3)cc2)CC1 (configuration not stated) | 3970 | 42800 | 1170
COc1ccccc1C(c1nnnn1Cc1ccc(F)cc1)N1CCN(C)CC1 (configuration not stated) | 11900 | > 100000 | 970
Nc1nc(Cl)nc2ccccc12 | 516 | > 10000 | 737
COCCNC(=O)C(c1ccc(C)cc1)N(Cc1ccccc1)C(=O)CCC(=O)Nc1nccs1 (configuration not stated) | > 4590 | > 100000 | 1720
O=C(Nc1cccnc1)c1cc(-c2cccnc2)nc2ccc(Br)cc12 | > 12500 | > 100000 | 2140
CCOC(=O)c1c(C)nc2c(c1C)c(=O)oc1ccccc12 | > 12500 | > 100000 | 70.5
O=C(NC1CC1)C1CCN(c2cccc3c2C(=O)N(C2CCCCCCC2)C3=O)CC1 | 203 | > 51800 | 169

Compound | EC50 [1] [nM] | CC50 [2] [nM] | EC50 [3] [nM]
c1ccc(-c2cc(N3CCc4ccccc4C3)nc(-c3ccccn3)n2)nc1 | 251 | > 10000 | 1110
COc1ccc2nc(C)cc(Nc3ccc(Br)cc3)c2c1 | 201 | 19700 | 369
CCOC(=O)c1c(CNC)n(C)c2cc(Br)c(O)cc12 | 458 | > 100000 | 691
Cc1cc(Cl)c(S(=O)(=O)N2CCCC2)cc1OCC(=O)NC1CCCCC1 | 95.6 | > 100000 | 141
COc1ccccc1N1C(=N)SC(=Cc2ccc(N(C)C)cc2)C1=O | 101 | 2220 | 52.5
Cc1ccc(C)c(N2C(=O)CC(Cc3ccc(Cl)cc3)C2=O)c1 (configuration not stated) | > 1250 | > 10000 | 1230
CC(=O)OC(OC(C)=O)C12C=CC(O1)C1C(=O)N(c3cccc(C)c3)C(=O)C12 (configuration not stated) | > 794 | > 10000 | > 1250
CCCC1(CCC)NC(=S)N(c2ccc(C)c(C)c2)N1 | > 1250 | > 10000 | > 576
CC(=O)N1CCc2cc(NC3CCN(Cc4ccccc4)CC3)ccc21 | > 1250 | > 10000 | > 656
COc1cc(NC(C)CCCN(Cc2ccc(Cl)cc2)C(=O)Nc2ccccc2F)c2ncccc2c1 (configuration not stated) | > 1090 | > 8250 | < 0.572
CC(=O)O[C@H]1C(=O)[C@@]2(C)C([C@H](OC(=O)c3ccccc3)[C@]3(O)C[C@H](OC(=O)[C@@H](O)[C@@H](NC(=O)c4ccccc4)c4ccccc4)C(C)=C1C3(C)C)[C@]1(OC(C)=O)CO[C@@H]1C[C@@H]2O (some centres not stated) | 658 | > 100000 | 152
CN1CCCC1CCNc1ncc(C(=O)NCc2ccccc2)c(NCC2CCCCC2)n1 (configuration not stated) | 54.4 | > 10000 | 100
N=c1c2c(n(Cc3ccccc3)c3c1CCC3)CCC2 | 280 | 41200 | 329
CCn1ccnc1CC1COc2ccccc2O1 (configuration not stated) [IMILOXAN HYDROCHLORIDE] | > 1040 | > 10000 | 443
N#Cc1c(NC(=O)COc2ccc(F)cc2F)sc2c1CCC2 | > 1250 | > 10000 | > 1070
NC(=NCc1ccccc1)NC(=O)c1nc(Cl)c(N)nc1N | 1160 | > 6250 | > 1250
Cc1cc(Nc2cccc([N+](=O)[O-])c2)nc2cc(O)ccc12 | 672 | 36300 | 75.1
O=C(NC(=C(Cl)Cl)[P+](c1ccccc1)(c1ccccc1)c1ccccc1)c1ccc(F)cc1 | 954 | 1740 | 171
Cc1ccn2c(NC(C)(C)CC(C)(C)C)c(-c3ccccc3OC(=O)CC(C)C)nc2c1 | 772 | > 10000 | < 11.5
CCOC(=O)c1c(Cl)nnc(-c2ccccc2)c1-c1ccccc1 | 797 | > 10000 | > 1440
c1ccc2c(c1)OC13CCCCC1C2NCC3 (configuration not stated) | 270 | 48600 | 43.6
Clc1ccc(CNCCCn2ccnc2)cc1Cl | > 1250 | > 10000 | > 269
C=CC[n+]1ccc(/C=C/c2ccccc2)c(C)c1 | 656 | > 10000 | 558

Compound | EC50 [1] [nM] | CC50 [2] [nM] | EC50 [3] [nM]
COc1ccc(-c2cc(C3CCN(c4nc(N)c5cc(OC)c(OC)cc5n4)CC3)n[nH]2)cc1OC | 202 | 16400 | 379
COc1cc2c(cc1/C=C(/C#N)c1cccc(C)c1)OCO2 | > 1060 | > 10000 | > 1250
COc1ccccc1-n1nnnc1SCC(=O)Nc1cc([N+](=O)[O-])ccc1C | 651 | > 100000 | 349
COc1cc(C(=O)N2CCN(Cc3cccc(Br)c3)CC2)cc(OC)c1OC | > 12500 | > 100000 | 5580
CCOc1ccc(NC(=O)N(CCC(C)C)C(C)c2nc3ccccc3c(=O)n2-c2cccc(Cl)c2C)cc1 (configuration not stated) | 1200 | > 10000 | 1140
CC(C)(C)CC(C)(C)Nc1c(-c2ccccc2OC(=O)c2cccc(Br)c2)nc2ccccn12 | 6620 | > 100000 | 823
COc1ccc(/C=C(/C#N)C(=O)Nc2cccc3ccccc23)cc1 | > 1160 | > 10000 | > 241
O=C1CC(c2ccccc2)CC2=C1C(c1ccccc1F)Nc1ccccc1N2 (configuration not stated) | 462 | > 100000 | 359
CCN(CC)C(=O)CSc1nnc(-c2ccccn2)n1-c1ccc(OC)cc1 | 1290 | 3190 | < 5.58
CCCCCCCSc1nsc(NC(=O)CCC)n1 | > 1310 | > 10000 | < 6.51
O=c1c(=O)n(Cc2cccc(C(F)(F)F)c2)ccn1CCc1ccccc1 | > 673 | > 10000 | > 1250
O=C(Nc1ccc(-c2ccc(Cl)cc2)cc1)c1cccs1 | 285 | > 100000 | 225
Cc1ccc(C)c(Nc2nc3c(s2)CCCC3)c1 | > 12500 | > 100000 | 4500
Cc1nc(CC(=O)N2CCCC(CNC(=O)C3(c4ccc(Cl)cc4)CC3)C2)cs1 (configuration not stated) | > 12500 | > 100000 | 5020
Cc1ccc(N=C2NC(=O)/C(=C\c3cc(C)n(-c4cccc([N+](=O)[O-])c4)c3C)S2)cc1 | 442 | > 10000 | 488
CCOC(=O)c1[nH]nc(C(=O)c2ccccc2)c1-c1ccccc1 | > 393 | > 10000 | > 1350
C#CCN1c2ccccc2Sc2cccnc21 | 50.4 | 36400 | 321
COc1ccc(C2(Cc3ccccc3)NC(=O)NC2=O)cc1 (configuration not stated) | 1340 | > 10000 | > 1220
COc1ccccc1C(=O)NNC(=O)c1ccccn1 | 1710 | 8700 | 1380
CCOC(=O)C1CCN(C(=O)C(=O)Nc2ccc3nc4n(c(=O)c3c2)CCCCC4)CC1 | 998 | > 100000 | 580
COc1cc(/C=C/c2nc(O)nc(O)c2[N+](=O)[O-])cc(Br)c1O | > 1250 | > 9110 | > 987
CCCCCOC(=O)C1=C(C)NC2=C(C(=O)CC(C)(C)C2)C1c1ccncc1 (configuration not stated) | 5190 | > 100000 | 1860
CCc1ccc(O)c(-c2cc(C(=O)Nc3cccnc3)[nH]n2)c1 | 742 | > 100000 | 910
